Results as given in paper PMC6175577, “BRCT domains of the DNA damage checkpoint proteins TOPBP1/Rad4 display distinct specificities for phosphopeptide ligands” (eLife, 2018).
Numbering of substitutions follows the chain as printed. Read-outs that look alike come from different tables or passages of the source. Blank lines part the entries; values can stand above or below the compound they belong to. Where a SMILES comes first, the peptide text is derived from it. [ ]: non-standard residue; d: D form. The star is where a group is joined. 5FAM = O=C1OC2(c3ccc(O)cc3Oc3cc(O)ccc32)c2ccc(C(=O)*)cc21; pT = C[C@@H](OP(=O)(O)O)[C@H](N)C(=O)O; pS = N[C@@H](COP(=O)(O)O)C(=O)O

Columns and labels:
Rad4-BRCT1,2 WT = molecular target: T1, Rad4-BRCT1,2 WT (Schizosaccharomyces pombe, UniProt P32372); assay: Fluorescence polarisation titration, Rad4-BRCT1,2 wild-type; conditions: FP, fluorescein-peptide 200 nM, HEPES pH 7.5, room temperature, one-site fit, 4 replicates; ND = low-affinity non-specific response, no binding curve
T1 construct: made in house; host or cells: E. coli BL21(DE3)
T1 sequence (P32372 1-186 limits assumed): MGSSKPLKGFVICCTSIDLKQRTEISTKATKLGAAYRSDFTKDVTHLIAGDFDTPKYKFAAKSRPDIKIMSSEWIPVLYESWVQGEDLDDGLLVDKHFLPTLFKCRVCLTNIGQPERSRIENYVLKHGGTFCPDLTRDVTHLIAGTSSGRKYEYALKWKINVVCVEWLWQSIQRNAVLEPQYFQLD
Procedure: (§1) Fluorescein-labelled peptides (Peptide Protein Research Ltd, Fareham, UK) at a concentration of 200 nM, were incubated at room temperature with increasing concentrations of recombinant protein in 25 mM HEPES pH 7.5, 150 mM NaCl, 1 mM EDTA, 0.25 mM TCEP, 0.02% (v/v) Tween-20. Four parallel replicates of each titration were dispensed into a black 96-well polypropylene plate (VWR, Lutterworth, UK) for measurement. Fluorescence polarisation was measured in a CLARIOstar multimode microplate reader (BMG Labtech, Aylesbury, UK). Binding curves represent the mean of 4 independent experiments, with error bars indicating one standard deviation. All data were fitted by non-linear regression, to a one site-specific binding model in Prism seven for Mac OS X (v 7.0d, GraphPad Software) in order to calculate the reported dissociation constants (Kd). Low-affinity non-specific responses for which a binding curve could not be determined are marked as ND.

Rad4-BRCT1,2 K56E = molecular target: T2, Rad4-BRCT1,2 K56E (Schizosaccharomyces pombe, UniProt P32372, K56E); assay: Fluorescence polarisation titration, Rad4-BRCT1,2 K56E (BRCT1 mutant); format: binding; conditions: FP, fluorescein-peptide 200 nM, HEPES pH 7.5, room temperature, one-site fit, 4 replicates
T2 construct: made in house; host or cells: E. coli BL21(DE3)
T2 sequence (P32372 1-186 K56E limits assumed): T1 sequence (P32372 1-186 limits assumed) with K56E
Procedure: as §1

Rad4-BRCT1,2 K151E = molecular target: T3, Rad4-BRCT1,2 K151E (Schizosaccharomyces pombe, UniProt P32372, K151E); assay: Fluorescence polarisation titration, Rad4-BRCT1,2 K151E (BRCT2 mutant); conditions: FP, fluorescein-peptide 200 nM, HEPES pH 7.5, room temperature; ND = low-affinity non-specific response, no binding curve
T3 construct: made in house; host or cells: E. coli BL21(DE3)
T3 sequence (P32372 1-186 K151E limits assumed): T1 sequence (P32372 1-186 limits assumed) with K151E
Procedure: as §1

Rad4-BRCT3,4 = molecular target: T4, Rad4-BRCT3,4 (Schizosaccharomyces pombe, UniProt P32372); assay: Fluorescence polarisation titration, Rad4-BRCT3,4; conditions: FP, fluorescein-peptide 200 nM, HEPES pH 7.5, room temperature; ND = low-affinity non-specific response, no binding curve
T4 construct: made in house; host or cells: E. coli BL21(DE3)
T4 sequence (P32372 291-494 limits assumed): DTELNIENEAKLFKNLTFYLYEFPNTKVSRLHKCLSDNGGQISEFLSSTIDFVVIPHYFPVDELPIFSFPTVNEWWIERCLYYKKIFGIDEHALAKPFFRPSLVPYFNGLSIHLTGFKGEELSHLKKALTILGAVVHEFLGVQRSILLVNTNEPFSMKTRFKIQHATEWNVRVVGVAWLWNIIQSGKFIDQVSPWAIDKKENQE
Procedure: as §1

TOPBP1-BRCT0,1,2 WT = molecular target: T5, TOPBP1-BRCT0,1,2 WT (Homo sapiens, UniProt Q92547); assay: Fluorescence polarisation titration, TOPBP1-BRCT0,1,2 wild-type; format: binding
T5 construct: made in house; host or cells: E. coli BL21(DE3)
Procedure: as §1

TOPBP1-BRCT0,1,2 K155E = molecular target: T6, TOPBP1-BRCT0,1,2 K155E (Homo sapiens, UniProt Q92547, K155E); assay: Fluorescence polarisation titration, TOPBP1-BRCT0,1,2 K155E (BRCT1 mutant); format: binding
T6 construct: made in house; host or cells: E. coli BL21(DE3)
Procedure: as §1

TOPBP1-BRCT0,1,2 K250E = molecular target: T7, TOPBP1-BRCT0,1,2 K250E (Homo sapiens, UniProt Q92547, K250E); assay: Fluorescence polarisation titration, TOPBP1-BRCT0,1,2 K250E (BRCT2 mutant); format: binding
T7 construct: made in house; host or cells: E. coli BL21(DE3)
Procedure: as §1

TOPBP1-BRCT4,5 = molecular target: T8, TOPBP1-BRCT4,5 (Homo sapiens, UniProt Q92547); assay: Fluorescence polarisation titration, TOPBP1-BRCT4,5; format: binding; conditions: FP, fluorescein-peptide 200 nM, HEPES pH 7.5, room temperature, one-site fit, 4 replicates; ND = low-affinity non-specific response, no binding curve
T8 construct: made in house; host or cells: E. coli BL21(DE3)
Procedure: as §1

TOPBP1-BRCT7,8 = molecular target: T9, TOPBP1-BRCT7,8 (Homo sapiens, UniProt Q92547); assay: Fluorescence polarisation titration, TOPBP1-BRCT7,8; format: binding; conditions: FP, fluorescein-peptide 200 nM, HEPES pH 7.5, room temperature, one-site fit; ND = low-affinity non-specific response, no binding curve
T9 construct: made in house; host or cells: E. coli BL21(DE3)
Procedure: as §1

[1] = FP, fluorescein-peptide 200 nM, HEPES pH 7.5, room temperature, one-site fit, 4 replicates
[2] = FP, fluorescein-peptide 200 nM, HEPES pH 7.5, room temperature, one-site fit, 4 replicates, read-out: Kd

T5 sequence (Q92547 1-290 limits assumed): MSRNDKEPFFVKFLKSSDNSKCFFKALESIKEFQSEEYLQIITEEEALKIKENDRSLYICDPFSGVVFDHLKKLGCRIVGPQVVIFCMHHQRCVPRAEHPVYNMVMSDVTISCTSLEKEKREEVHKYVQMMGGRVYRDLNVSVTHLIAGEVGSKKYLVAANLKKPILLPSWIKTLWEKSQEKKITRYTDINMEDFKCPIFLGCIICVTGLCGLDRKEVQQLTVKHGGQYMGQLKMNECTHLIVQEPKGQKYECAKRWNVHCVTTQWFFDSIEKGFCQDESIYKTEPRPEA
T7 sequence (Q92547 1-290 K250E limits assumed): as the sequence (Q92547 1-290 limits assumed) above, with K250E counted along it
T6 sequence (Q92547 1-290 K155E limits assumed): as the sequence (Q92547 1-290 limits assumed) above, with K155E counted along it
T9 sequence (Q92547 1264-1493 limits assumed): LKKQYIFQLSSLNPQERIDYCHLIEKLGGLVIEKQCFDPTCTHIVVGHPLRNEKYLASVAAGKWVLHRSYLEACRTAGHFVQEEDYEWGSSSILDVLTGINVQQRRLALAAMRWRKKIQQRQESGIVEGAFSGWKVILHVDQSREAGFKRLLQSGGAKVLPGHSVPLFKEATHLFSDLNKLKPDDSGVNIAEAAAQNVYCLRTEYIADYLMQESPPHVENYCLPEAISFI
T8 sequence (Q92547 549-746 limits assumed): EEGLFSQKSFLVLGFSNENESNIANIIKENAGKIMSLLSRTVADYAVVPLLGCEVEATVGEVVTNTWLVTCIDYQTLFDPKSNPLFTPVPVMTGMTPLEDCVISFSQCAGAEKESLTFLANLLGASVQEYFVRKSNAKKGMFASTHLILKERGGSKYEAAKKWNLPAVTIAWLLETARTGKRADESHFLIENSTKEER

Compound: CSCC[C@H](NC(=O)[C@@H](NC(=O)CNC(=O)CNC(=O)[C@H](Cc1ccc(O)cc1)NC(=O)CNC(=O)c1ccc2c(c1)C(=O)OC21c2ccc(O)cc2Oc2cc(O)ccc21)C(C)C)C(=O)N[C@H](C(=O)N[C@H](C(=O)N1CCC[C@H]1C(=O)N[C@@H](CC(N)=O)C(=O)N[C@H](C(=O)N1CCC[C@H]1C(=O)N[C@@H](CCC(N)=O)C(=O)N[C@@H](CCCCN)C(=O)N1CCC[C@H]1C(=O)N[C@@H](CC(N)=O)C(=O)N[C@@H](CC(C)C)C(=O)N[C@@H](CCC(N)=O)C(=O)O)[C@@H](C)OP(=O)(O)O)C(C)C)[C@@H](C)O [Mdb1 pT113] (5FAM-GYGGVMTVPN[pT]PQKPNLQ-OH)
Kd (Rad4-BRCT1,2 WT): low micromolar affinity | Kd (Rad4-BRCT1,2 K56E): largely unaffected | Kd (Rad4-BRCT1,2 K151E): substantially reduced compared to wild-type | Kd (Rad4-BRCT3,4): no binding

Kd (TOPBP1-BRCT0,1,2 WT; [1]): sub-micromolar affinity | Kd (TOPBP1-BRCT0,1,2 WT; [2]): < 200 nM | Fold tighter binding than RAD9-pS387 (TOPBP1-BRCT0,1,2 WT; RHNO1-pT202 versus RAD9-pS387, binding to TOPBP1 BRCT1): ~ 10 fold | Kd (TOPBP1-BRCT0,1,2 K155E; FP, fluorescein-peptide 200 nM, HEPES pH 7.5, room temperature, one-site fit, 4 replicates, ND = low-affinity non-specific response, no binding curve): no binding was observed | Kd (TOPBP1-BRCT0,1,2 K250E; [1]): comparable affinity to the wild-type | Kd (TOPBP1-BRCT0,1,2 K250E; [2]): < 200 nM | Kd (TOPBP1-BRCT4,5): did not show any measurable binding | Kd (TOPBP1-BRCT7,8): did not show any measurable binding
Compound: CC[C@H](C)[C@H](NC(=O)CNC(=O)[C@H](Cc1ccc(O)cc1)NC(=O)[C@H](CCCCN)NC(=O)[C@H](CC(=O)O)NC(=O)[C@H](CCC(=O)O)NC(=O)[C@@H]1CCCN1C(=O)[C@@H](NC(=O)[C@H](CC(=O)O)NC(=O)[C@H](CCCCN)NC(=O)[C@@H](NC(=O)[C@H](CC(C)C)NC(=O)[C@@H](NC(=O)[C@@H]1CCCN1C(=O)CNC(=O)CNC(=O)[C@H](Cc1ccc(O)cc1)NC(=O)CN)C(C)C)C(C)C)[C@@H](C)OP(=O)(O)O)C(=O)O [RHNO1 pT202] (H-GYGGPVLVKD[pT]PEDKYGI-OH; N-terminus and C-terminus assumed)

Kd (TOPBP1-BRCT0,1,2 WT; read-out: Kd): 940 ± 60 nM | Kd (TOPBP1-BRCT0,1,2 K155E; read-out: Kd): 1000 ± 60 nM
Compound: CC[C@H](C)[C@H](NC(=O)[C@H](CCC(N)=O)NC(=O)[C@H](CCCCN)NC(=O)[C@H](Cc1c[nH]cn1)NC(=O)[C@@H](NC(=O)[C@@H]1CCCN1C(=O)[C@@H](NC(=O)[C@H](CCC(=O)O)NC(=O)[C@H](C)NC(=O)[C@@H](NC(=O)[C@H](CO)NC(=O)[C@H](CCCCN)NC(=O)[C@@H](NC(=O)[C@H](CC(C)C)NC(=O)CNC(=O)[C@H](Cc1ccc(O)cc1)NC(=O)CNC(=O)c1ccc2c(c1)C(=O)OC21c2ccc(O)cc2Oc2cc(O)ccc21)[C@@H](C)O)C(C)C)[C@@H](C)OP(=O)(O)O)C(C)C)C(=O)N[C@@H](CO)C(=O)O [Treslin pT969] (5FAM-GYGLTKSVAE[pT]PVHKQIS-OH)

Kd (TOPBP1-BRCT0,1,2 WT; read-out: Kd): 600 ± 30 nM | Kd (TOPBP1-BRCT0,1,2 K155E; read-out: Kd): 730 ± 40 nM | Kd (TOPBP1-BRCT0,1,2 K250E; read-out: Kd): 350 ± 130 nM
Compound: CC[C@H](C)[C@H](NC(=O)[C@H](CCC(=O)O)NC(=O)[C@H](CC(=O)O)NC(=O)CNC(=O)[C@H](CCCCN)NC(=O)[C@H](CCC(=O)O)NC(=O)[C@@H]1CCCN1C(=O)[C@H](COP(=O)(O)O)NC(=O)[C@H](CCC(=O)O)NC(=O)[C@H](CCC(=O)O)NC(=O)[C@@H](NC(=O)[C@@H](NC(=O)CNC(=O)[C@@H](NC(=O)[C@H](CC(=O)O)NC(=O)CNC(=O)[C@H](Cc1ccc(O)cc1)NC(=O)CNC(=O)c1ccc2c(c1)C(=O)OC21c2ccc(O)cc2Oc2cc(O)ccc21)[C@@H](C)CC)C(C)C)C(C)C)C(=O)O [Treslin pT1001] (5FAM-GYGDIGVVEE[pS]PEKGDEI-OH)
